From patent US12129312B2, “Peptide compound, application thereof and composition containing same” (priority 2017, dated 2024)
Where two headings read alike, the source gives them in different places. Square brackets hold non-standard residues; d marks the D form. Peptide text beside a SMILES is read from it. * marks the point of attachment. PEG8 = NCCOCCOCCOCCOCCOCCOCCOCCOCCC(=O)O; 2Nal = N[C@@H](Cc1ccc2ccccc2c1)C(=O)O; Palmitoyl = CCCCCCCCCCCCCCCC(=O)*; Tic = O=C(O)[C@@H]1Cc2ccccc2CN1; NMeL = CN[C@@H](CC(C)C)C(=O)O; Thz = O=C(O)[C@@H]1CSCN1; βAla = NCCC(=O)O

Key:
[1] = biological target: T1, human Chemokine like receptor 1 (Homo sapiens, UniProt Q99788); test: Activation of Tango CMKLR1-bla U2OS cells (beta-lactamase FRET reporter); type: cell-based
T1 construct: host or cells: U2OS (Tango CMKLR1-bla U2OS)
T1 sequence (Q99788 1-373): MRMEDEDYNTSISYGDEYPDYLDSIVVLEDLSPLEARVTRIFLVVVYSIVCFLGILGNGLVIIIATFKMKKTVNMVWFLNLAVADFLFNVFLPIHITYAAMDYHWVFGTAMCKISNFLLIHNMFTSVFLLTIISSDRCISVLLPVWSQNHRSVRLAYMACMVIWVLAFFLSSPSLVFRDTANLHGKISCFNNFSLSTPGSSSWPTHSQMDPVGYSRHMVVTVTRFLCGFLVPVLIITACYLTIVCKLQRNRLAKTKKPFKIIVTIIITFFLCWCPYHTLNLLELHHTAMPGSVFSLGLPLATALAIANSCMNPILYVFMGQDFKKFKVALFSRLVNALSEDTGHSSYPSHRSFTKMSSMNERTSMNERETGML
Outline: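 Agonist mode in Tango CMKLR1-bla U2OS cells, 10000 cells/well seeded overnight, then 10-point 3-fold compound dilutions from 10 mM DMSO stock applied for 4 h at 37 °C, 5% CO2. Beta-lactamase reporter read with CCF4-AM FRET substrate; peptide (D-Tyr)-Phe-Leu-Pro-(D-Ser)-Gln-Phe-(D-Ala)-Tic-Ser served as positive control.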

[2] = Plasma stability, human plasma; type: in vitro ADME; conditions: 37° C., time points 0 minute, 1, 2 and 4 hours, LC-MS/MS, read-out: Human plasma (T1/2 (h)) (converted)
Method: (§1) 1. Preparation of 50 mM Phosphate Buffer (50 mM Sodium Phosphate and 70 mM NaCl):
(§2) 5.750 g of Na2HPO4, 1.141 g of NaH2PO4 and 4.095 g of NaCl (Shanghai Titan) were weighed and dissolved in 1000 mL of ultrapure water and the pH was adjusted to 7.4. The prepared phosphate buffer was stored in the refrigerator at 4° C., valid for one week.
(§3) 2. Preparation of Compound Stock Solution:
(§4) 1) 5 mg/mL test compound: 5 mg of compound was weighed and dissolved in 1 mL of DMSO.
(§5) 2) 20 mM control: 2.728 mg of nococaine was dissolved in 0.5 mL of DMSO. 3.878 mg of fenfluramide was dissolved in 0.5 mL of DMSO (Amresco).
(§6) 3. Preparation of Experimental Plasma:
(§7) The frozen plasma (human: Shanghai ChemPartner, Rat, Mouse: Shanghai Xipuer-Beikai, Dog, Monkey: Suzhou Xishan Zhongke) was taken out from the −80° C. refrigerator, immediately placed in a 37° C. water bath, and thawn with gentle shaking. The thawed plasma was poured into a centrifuge tube, and centrifuged at 3000 rpm for 8 minutes. The supernatant was collected for the experiment. The pH of the plasma was measured with a pH meter (METTLER TOLEDO), and only the plasma with a pH between 7.4 and 8 was used for the experiment. The plasma was placed on an ice bath for later use.
(§8) 4. Preparation of the Dosing Solution:
(§9) 1) 125 μg/mL test compound solution: 5 μL of 5 mg/mL test compound (see step 2) was added to 195 μL DMSO; 500 μM control solution: 20 mM control stock solution (see step 2) was added to 195 μL DMSO.
(§10) 2) 0.5% BSA phosphate buffer solution: 0.05 g of BSA was added to 10 mL of phosphate buffer (see step 1).
(§11) 3) 5 μg/mL test compound dosing solution: 40 μL of 125 μg/mL test compound solution was added to 960 μL of 0.5% BSA phosphate buffer solution, shaken and mixed evenly, and the dosing solution was placed in a 37° C. water bath and preheated for 5 minutes.
(§12) 20 μM control dosing solution: 40 μL of 500 μM control solution was added to 960 μL of 0.5% BSA phosphate buffer solution, shaken and mixed evenly, and the dosing solution was placed in a 37° C. water bath and preheated for 5 minutes.
(§13) 5. 10 μL of 5 μg/mL test compound and 20 μM control solution were added to the wells of the 96-well plate set at different time points (0 minute, 1 hour, 2 hours and 4 hours). The number of duplicate samples was 3.
(§14) 6. 500 μL of ACN (IS) containing 5% FA was added to the wells set at 0 minute. 90 μL of plasma was then added thereto, mixed evenly, sealed with the film and stored at 4° C. (the number of duplicates was 3).
(§15) 7. 90 μL of plasma was added to the wells set at 1 hour, 2 hours and 4 hours (the number of replicates was 3), followed by timing (the final concentration of the test compound was 500 ng/mL, and that of the control was 2 μM).
(§16) 9. All samples (0 minutes, 1 hour, 2 hours, and 4 hours) at different time points on the 96-well plate were placed on a shaker (IKA, MTS 2/4) and shaken at 600 rpm for 60 minutes. The samples were then centrifuged for 15 minutes on a centrifuge machine (Thermo Multifuge×3R) at 5594×g.
(§17) 10. 150 μL of the supernatant was taken out from the centrifuged sample and sent to LC-MS/MS for analysis (conventional peptide LC-MS/MS analysis).

[3] = Plasma stability, mouse plasma; type: in vitro ADME; conditions: 37° C., 0-4 hours, LC-MS/MS, "Very long" = no significant degradation found in the test (4 hours); for half-life at 500 ng/mL: read-out: Mouse plasma (T1/2 (h)) (converted)
Method: as §1, §2, §3, §4, §5, §6, §7, §8, §9, §10, §11, §12, §13, §14, §15, §16, §17

[4] = determination by the method of Effect Embodiment 1, read-out: EC50

| EC50 [1, 4] [nM] | half-life at 500 ng/mL [2] [h] | half-life at 500 ng/mL [3] [h] | Structure (SMILES) | EC50 [1] [nM] | Mouse plasma (T1/2 (h)) ([3]; 500 ng/mL) |
| --- | --- | --- | --- | --- | --- |
| 0.7 | 14 | 11.4 | CCCCCCCCCCCCCCCC(=O)NCCOCCOCCOCCOCCOCCOCCOCCOCCC(=O)NCCC(=O)NCCC(=O)N[C@H](Cc1ccc(O)cc1)C(=O)N[C@@H](Cc1ccccc1)C(=O)N(C)[C@@H](CC(C)C)C(=O)N1CCC[C@H]1C(=O)N[C@H](CO)C(=O)N[C@@H](CCC(N)=O)C(=O)N[C@@H](Cc1ccccc1)C(=O)N[C@H](C)C(=O)N1Cc2ccccc2C[C@H]1C(=O)N[C@@H](CO)C(=O)O [YW-134, Palm-PEG8-βAla-βAla-(D-Tyr)-Phe-(NMe-Leu)-Pro-(D-Ser)-Gln-Phe-(D-Ala)-Tic-Ser-OH] ({Palmitoyl-PEG8-βAla-βAla}-[dY]F[NMeL]P[dS]QF[dA][Tic]S-OH) | – | – |
| 0.7 | 13.7 | 67.1 | CCCCCCCCCCCCCCCC(=O)NCCOCCOCCOCCOCCOCCOCCOCCOCCC(=O)NCC(=O)NCC(=O)N[C@H](Cc1ccc(O)cc1)C(=O)N[C@@H](Cc1ccccc1)C(=O)N(C)[C@@H](CC(C)C)C(=O)N1CCC[C@H]1C(=O)N[C@H](CO)C(=O)N[C@@H](CCC(N)=O)C(=O)N[C@@H](Cc1ccccc1)C(=O)N[C@H](C)C(=O)N1Cc2ccccc2C[C@H]1C(=O)N[C@@H](CO)C(=O)O [YW-133, Palm-PEG8-Gly-Gly-(D-Tyr)-Phe-(NMe-Leu)-Pro-(D-Ser)-Gln-Phe-(D-Ala)-Tic-Ser-OH] ({Palmitoyl-PEG8}-GG[dY]F[NMeL]P[dS]QF[dA][Tic]S-OH) | – | – |

| Structure (SMILES) | EC50 [1, 4] [nM] | half-life at 500 ng/mL [2] [h] | half-life at 500 ng/mL [3] [h] | EC50 [1] [nM] | Mouse plasma (T1/2 (h)) ([3]; 500 ng/mL) |
| --- | --- | --- | --- | --- | --- |
| CC(C)C[C@@H](C(=O)N1CSC[C@H]1C(=O)N[C@H](CO)C(=O)N[C@@H](CCC(N)=O)C(=O)N[C@@H](Cc1ccc2ccccc2c1)C(=O)N[C@H](C)C(=O)N1Cc2ccccc2C[C@H]1C(=O)N[C@@H](CO)C(=O)O)N(C)C(=O)[C@H](Cc1ccccc1)NC(=O)[C@H](N)Cc1ccc(O)cc1 [YW-122, (D-Tyr)-Phe-(NMe-Leu)-Thz-(D-Ser)-Gln-2Nal-(D-Ala)-Tic-Ser-OH] (H-[dY]F[NMeL][Thz][dS]Q[2Nal][dA][Tic]S-OH) | – | 79.6 | – | 0.6 | Very long |
